Patent US11400101B2, “Treatment of allergic rhinitis using a combination of mometasone and olopatadine” (GLENMARK SPECIALTY S.A., priority 2013, dated 2022)
Marks after values point to notes of the source that are not given here.

Tests used:
sneezing response = experiment: Sneezing response in ovalbumin induced rhinitis model (whole body plethysmography); type: in vivo, guinea pigs; details: for Inhibition of sneezing response (in words) / Number of Sneeze (0-50 min): MF 10 μg; for Percent inhibition of sneeze: MF 10 μg per animal, vs ovalbumin control; for Number of Sneeze (0-50 min): intranasal, ovalbumin challenged
Method: Male Dunkin Hartley guinea pigs were actively sensitized with a subcutaneous injection of 1.5 mg of ovalbumin and 20 mg of aluminum hydroxide gel on days 0 and 7. Guinea pigs were sensitized intranasally with 2% ovalbumin from days 14-17. On day 28, the animals were challenged with 6% ovalbumin intranasally. Mometasone furoate 10 μg was given intranasally 24 hours and 1 hour prior to the final ovalbumin challenge. Olopatadine hydrochloride was given intranasally 1 hour before the final ovalbumin challenge. The dosing volume was 40 μl/animal. The saline control group and ovalbumin control group received vehicle (40 μl, 0.1% Tween 80 in distilled water). Sneezing response was determined by using whole body plethysmography (Buxco Research Systems, USA) for 50 minutes after final saline or ovalbumin challenge. The procedure in Example 1 was repeated except 120 μg of olopatadine hydrochloride (based on the equivalent weight of olopatadine free base) was used. The animal groups in Table 3 below were used during this experiment. Compound administration was performed as in Example 1, except the dosing volume was 60 μl/animal. The saline control group and ovalbumin control group received vehicle (60 μl, 0.1% Tween 80 in distilled water). In vivo evaluations were performed as in Example 1.

[1] = tested on: total cells and eosinophils in nasal lavage; experiment: Nasal lavage total cell count and eosinophils in ovalbumin induced rhinitis model; type: in vivo, guinea pigs; details: for Inhibition of total cell and eosinophils in nasal lavage (in words): MF 10 μg; for % inhibition of eosinophils / Percent inhibition of total cell count / Eosinophils × 10^5/ml nasal lavage / Total cell count × 10^5/ml nasal lavage: MF 10 μg per animal
Method: Male Dunkin Hartley guinea pigs were actively sensitized with a subcutaneous injection of 1.5 mg of ovalbumin and 20 mg of aluminum hydroxide gel on days 0 and 7. Guinea pigs were sensitized intranasally with 2% ovalbumin from days 14-17. On day 28, the animals were challenged with 6% ovalbumin intranasally. Mometasone furoate 10 μg was given intranasally 24 hours and 1 hour prior to the final ovalbumin challenge. Olopatadine hydrochloride was given intranasally 1 hour before the final ovalbumin challenge. The dosing volume was 40 μl/animal. The saline control group and ovalbumin control group received vehicle (40 μl, 0.1% Tween 80 in distilled water). Nasal lavage was performed at 4 hours after challenge of animals with saline or ovalbumin on day 28. Animals were anesthetized with an overdose of urethane, the trachea was exposed and nasal lavage was performed using 2 mL pre-warmed normal saline. The collected nasal lavage was taken for total cell count using a hemocytometer. The nasal lavage was centrifuged, and the cell pellet resuspended in 15 μL guinea pig serum and used for preparation of smears. Slides were stained with Leishman's stain and a differential cell count of 100 cells based on standard morphology was performed manually. The total number of eosinophils in each nasal lavage sample was calculated using the formula: [formula] Percent inhibition of eosinophils was calculated using the following formula: The procedure in Example 1 was repeated except 120 μg of olopatadine hydrochloride (based on the equivalent weight of olopatadine free base) was used. The animal groups in Table 3 below were used during this experiment. Compound administration was performed as in Example 1, except the dosing volume was 60 μl/animal. The saline control group and ovalbumin control group received vehicle (60 μl, 0.1% Tween 80 in distilled water). In vivo evaluations were performed as in Example 1.

[2] = Plasma pharmacokinetics of TP-1 in the Phase III study, day 1 and day 8 (steady state); type: in vivo, human; details: patients receiving TP-1 twice daily
Excerpt: This study consisted of four visits to the study site. After the initial screening visit (Visit 1), subjects who met all study selection criteria were required to undergo a single-blind placebo run-in period for 7-10 days. Following the completion of the run-in period, eligible subjects meeting the randomization criteria were enrolled and randomized to one of the four treatment arms. Subjects were dispensed medication as per the randomization list. Randomized subjects were required to undergo a 2 week (14 days) treatment period as per the protocol to assess the efficacy and safety of the assigned treatment. Subjects were instructed to record the symptom scores in a symptom assessment diary. They were also scheduled to have at least two blood samples for PK assessment during the treatment period.
• Change from baseline in average AM and PM subject-reported 12-hour rTNSS (reflective TNSS) over the 14-day treatment period. Secondary Endpoints • Change from baseline in average AM and PM subject-reported 12-hour iTNSS (instantaneous TNSS) over the 14 day treatment period. • Change from baseline in average AM and PM subject-reported 12-hour rTOSS (reflective TOSS) over the 14-day treatment period. • Onset of action for each treatment are assessed by comparing the change from baseline in post-treatment iTNSS between each active treatment and placebo at defined time points (prior to first dose (pre-dose), 15 min, 30 min, 45 min, 60 min, 90 min, 120 min, 150 min, 180 min, 210 min, and 240 min) after the first study treatment for 4 hours. • Change from baseline in the overall Rhinoconjunctivitis Quality of Life questionnaire (RQLQ)—Standardized Activities (RQLQ(S)) score on Day 15 (Visit 4) for the Full Analysis Set (FAS). Pharmacokinetic Endpoints • Plasma PK: Maximum plasma concentration (Cmax), time to attain Cmax (Tmax), and area under the plasma concentration-time curve over the dosing interval (AUCtau) will be estimated for mometasone furoate and olopatadine on Day 1 and Day 8 based on the pharmacokinetic analysis set (PKAS). Tertiary Efficacy Endpoints Nasal Symptoms: • Change from baseline in AM subject-reported rTNSS over the 14-day treatment period. • Change from baseline in AM subject-reported iTNSS over the 14-day treatment period. • Change from baseline in PM subject-reported rTNSS over the 14-day treatment period. • Change from baseline in PM subject-reported iTNSS over the 14-day treatment period. • Change from baseline in subject-reported reflective individual nasal symptoms over the 14-day treatment period (AM, PM and average of AM and PM). • Change from baseline in subject-reported instantaneous individual nasal symptoms over the 14-day treatment period (AM, PM and average of AM and PM). • Change from baseline in average AM and PM subject-reported rTNSS and iTNSS for each day. • Change from baseline in AM subject-reported rTNSS and iTNSS for each day. • Change from baseline in PM subject-reported rTNSS and iTNSS for each day. […]

[3] = Pharmacokinetics of mometasone furoate, single-dose three-period cross-over study, Example 13; type: in vivo, human; details: single dose nasal spray
Method: The pharmacokinetics of mometasone furoate in a fixed dose combination of mometasone furoate and olopatadine hydrochloride nasal spray was evaluated in a clinical trial. The clinical trial was a randomized, single-center, single-dose, open-label, three-period, six-sequence, cross-over study to evaluate three treatments administered by nasal spray. The three treatments included a combination of mometasone furoate and olopatadine hydrochloride nasal spray, mometasone furoate nasal spray and Nasonex® nasal spray. […] The study consisted of a screening visit, 3 single-dose treatment periods with washout periods of 7 to 14 days between dosing in each treatment period, an early withdrawal visit if applicable, and a follow-up telephone call (or visit) 1 to 7 days after completing the third treatment period. A total of 30 subjects were randomized to 1 of 6 treatment sequences and received at least 1 dose of study drug. All 30 subjects were included in the safety analysis set and the pharmacokinetic subset. All but 2 subjects completed the study per protocol.

[4] = Example 1, OH 50 μg, 4 hours after challenge

C[C@@H]1C[C@H]2[C@@H]3CCC4=CC(=O)C=C[C@]4(C)[C@@]3(Cl)[C@@H](O)C[C@]2(C)[C@@]1(OC(=O)c1ccco1)C(=O)CCl [Mometasone Furoate, Mometasone furoate]
Inhibition of sneezing response (in words) (sneezing response; Example 1, OH 50 μg): not effective | Percent inhibition of sneeze (sneezing response; Example 1, OH 50 μg): 15% | Number of Sneeze (0-50 min) (sneezing response; Example 1, per animal: OH 50 μg, combination 50 (OH) & 10 (MF)): 18.83 | Inhibition of sneezing response (in words) (sneezing response; Example 2, OH 120 μg): not effective | Percent inhibition of sneeze (sneezing response; Example 2, OH 120 μg): −5% | Number of Sneeze (0-50 min) (sneezing response; Example 2, per animal: OH 120 μg, combination 120 (OH) & 10 (MF)): 37.33 | Inhibition of total cell and eosinophils in nasal lavage (in words) ([1]; Example 1, OH 50 μg): significant inhibition | % inhibition of eosinophils ([1]; Example 1, OH 50 μg): 46% | Percent inhibition of total cell count ([1]; Example 1, OH 50 μg): 46% | Eosinophils × 10^5/ml nasal lavage [1, 4]: 2.00* × 10^5/ml | Total cell count × 10^5/ml nasal lavage [1, 4]: 3.90* × 10^5/ml | Inhibition of total cell and eosinophils in nasal lavage (in words) ([1]; Example 2, OH 120 μg): significant inhibition | % inhibition of eosinophils ([1]; Example 2, OH 120 μg): 20% | Eosinophils × 10^5/ml nasal lavage ([1]; Example 2, OH 120 μg): 2.69 × 10^5/ml | Percent inhibition of total cell count ([1]; Example 2, OH 120 μg): 30% | Total cell count × 10^5/ml nasal lavage ([1]; Example 2, OH 120 μg): 4.96 × 10^5/ml | Mometasone furoate AUCtau, Geo Mean ([2]; Day 1): 0.02616 ng·h/mL | Mometasone furoate AUCtau, Mean ([2]; Day 1): 0.02856 ng·h/mL | Mometasone furoate AUCtau, Min-Max ([2]; Day 1): 0.01211 to 0.07254 ng·h/mL | Mometasone furoate Cmax, Geo Mean ([2]; Day 1): 6.27 pg/mL | Mometasone furoate Cmax, Mean ([2]; Day 1): 6.78 pg/mL | Mometasone furoate Cmax, Min-Max ([2]; Day 1): 2.67 to 12.80 pg/mL | Mometasone furoate Tmax, Median ([2]; Day 1): 1.00 h | Mometasone furoate AUCtau, Geo Mean ([2]; Day 8): 0.05267 ng·h/mL | Mometasone furoate AUCtau, Mean ([2]; Day 8): 0.0584 ng·h/mL | Mometasone furoate AUCtau, Min-Max ([2]; Day 8): 0.02568 to 0.12405 ng·h/mL | Mometasone furoate Cmax, Geo Mean ([2]; Day 8): 9.17 pg/mL | Mometasone furoate Cmax, Mean ([2]; Day 8): 9.92 pg/mL | Mometasone furoate Cmax, Min-Max ([2]; Day 8): 3.58 to 16.10 pg/mL | Mometasone furoate Tmax, Median ([2]; Day 8): 1.00 h | Last time point until which quantifiable concentrations were observed [3]: 72 h
